Measurements taken from patent US20240148835A1, “TREATING DISORDERS ASSOCIATED WITH DYRK1A DYSFUNCTION” (UNIVERSITY OF FLORIDA RESEARCH FOUNDATION, INCORPORATED, priority 2021, published 2024).
“Also recorded” adds a separate entry of the source.

Assays:
[1] = system: protein synthesis in the mPFC of cHets; assay: SUnSET puromycin incorporation assay (protein synthesis) in mPFC after (1-3)IGF-1 treatment; assay type: in vivo, mouse
Procedure: Protein synthesis is a critical output of mTOR signaling, particularly downstream of P70 Ribosomal S6 Kinase (S6K1).
(§1) (1-3)IGF-1 was acquired from VWR/Bachem (catalog #H-2468.1000) and dissolved in saline with 0.01% BSA fresh every day. Intraperitoneal injections of 10 mg kg′ (1-3)IGF-1 or vehicle were delivered daily at 8 a.m. starting on P14 and ending on P85. […] The S6K1 inhibitor PF-4708671 was acquired from Medkoo Biosciences (#406432) dissolved in 10% DMSO, 10% tween 80 and 80% water. (1-3)IGF-1 (10 mg kg′) and PF-4708671 (50 mg kg^−1) or vehicle were injected subcutaneously into pups from P0 to P7. Rapamycin was acquired from LC laboratories (R-5000) and dissolved in 4% ethanol, 5% tween-80, and 5% PEG400 in PBS. (1-3)IGF-1 (10 mg kg′) and Rapamycin (1 mg kg′) or vehicle were injected subcutaneously into pups from P0 to P7. SB216763 was acquired from TOCRIS (#1616) and dissolved in 5% DMSO and 0.9% saline in dH20. SB216763 (0.5 mg kg′) was injected subcutaneously into pups from P0 to P7.
300 μm coronal prefrontal cortical slices were obtained from postnatal day 7 (P7) and adult mice. Slices were allowed to recover in artificial cerebrospinal fluid (in mM: 124 NaCl, 2.8 KCl, 2 CaCl2, 1.25 NaH2P04, 1.25 MgSO4, 26 NaHCO3, 10 Dextrose) for 2 h at 32° C. Puromycin (5 μg ml-1) was applied to slices for 40 min at 32° C. to label newly synthesized proteins. Slices were then snap frozen on dry ice and stored at −80° C. until used. Protein (50 μg) was loaded on 4-12% gradient gels, transferred onto polyvinylidene difluoride membranes, and probed with anti-puromycin antibody (1:5,000, Millipore, MABE343). Anti-mouse HRP-tagged secondary antibody was used and chemiluminiscence was developed using standard ECL reagents. Quantification was done by measuring intensity of each lane from 14 to 191 kDa, subtracting it from the intensity of the unlabeled lane and normalized to loading control.

[2] = system: ASD mouse models; conditions: cited from earlier work
[3] = system: Dyrk1a cHets; assay: Neonatal (1-3)IGF-1 injection in Dyrk1a cHet pups: cortex mass, layer V soma size, p-S6; assay type: in vivo, mouse
Procedure: We next aimed to increase mTOR signaling via pharmacological intervention. Because activation of TrkB receptor is decreased in cKOs, treating mice with exogenous BDNF may not be effective. To circumvent this issue while stimulating the same signaling cascades, we injected neonatal pups with (1-3)IGF-1 (GPE), a tripeptide cleaved from the N-terminus of IGF-1 (44). Pups were injected daily from P0 to P7 with 10 μg/g (1-3)IGF-1 or vehicle based on a previously described treatment paradigm (45). Eight hours post-injection on P7, pups were sacrificed, and brains were fixed (FIG. 7F).
(1-3)IGF-1 treatment: (1-3)IGF-1 was acquired from VWR/Bachem (catalog #H-2468.1000) and dissolved in saline with 0.01% BSA fresh every day. Intraperitoneal injections of 10 μg/g (1-3)IGF-1 or vehicle were delivered daily at 8 a.m. starting on P1 and ending on P7. […] Pups were individually removed, injected, and placed back in the home cage with the dam. On P7, 6 hours post-injection, pups were rapidly decapitated for downstream analysis.
Immunohistochemistry: Adult animals were perfused with 4% PFA, and pups underwent rapid decapitation and dissection. After 18 hours post-fixation in 4% PFA, brains were incubated in a 20% sucrose/PBS solution at 4° C. for 2-3 days and embedded in Tissue-Tek OCT compound (Sakura). 40 μm sections were collected on Superfrost/Plus slides and stained. The following primary antibodies were used following antigen retrieval (10 min. in boiling 10× citrate buffer): anti-cleaved caspase 3 (1:1000, Cell Signaling Technology, catalog #9661S), anti-Ctip2 (1:2000, Abcam, catalog #18465), anti-p-S6 Ser235/236 (1:2000, Cell Signaling Technology, catalog #4858S). AlexaFluor-488, -594, and -647-conjugated secondary antibodies (1:2000) were purchased from Invitrogen. DAPI was used for nuclear labeling (Invitrogen, catalog #D3571). Slides were mounted with Vectashield HardSet and images were obtained with an Olympus VS120 microscope and processed using the VS-DESKTOP software (Olympus) or ImageJ (NIH).
For p-S6 intensity, P0, P7, and adult sections were stained with Ctip2 and p-S6 (Ser235/236). […] After image acquisition, Ctip2+ neurons were measured for p-S6 mean gray intensity. 25-30 neurons were measured per section and 2 plane-matched sections were analyzed per animal.
For soma size analysis, sections were stained with NeuroTrace green fluorescent Nissl stain (1:100 dilution, Life Technologies catalog #N-21480) and washed with PBS. After image acquisition, somas in each layer in somatosensory cortex (51) were measured using the ImageJ freehand tool. Layers were denoted based on anatomical boundaries using DAPI staining. 30-35 somas were measured per layer and 2-3 plane-matched sections were analyzed per animal. This was done based on a previously published technique (8).

[4] = system: mouse model of Rett syndrome; conditions: chronic administration, same paradigm; cited from earlier work
[5] = system: Dyrk1a cHets; assay: Chronic (1-3)IGF-1 treatment from P14: behavioral battery; assay type: in vivo, mouse
Source text: To determine whether chronic (1-3)IGF-1 administration ameliorates ASD-relevant behaviors, we conducted a behavioral battery to assay sociability and repetitive behaviors as well as locomotion, anxiety-like behavior, acoustic startle, and sensorimotor gating. […] Taken together, (1-3)IGF-1 treatment ameliorates morphological, neuronal, and behavioral deficits caused by cortical Dyrk1a mutations.
as §1
3 chamber social approach: Briefly, after at least 2 weeks housing under reversed light cycle, each mouse was habituated in the three-chamber box for 5 minutes before a stimulus mouse was placed into a tube in the “social” chamber. The stimulus mice used were young adult male mice. The time spent in each chamber (“mouse+tube”, “empty tube”, “center”) was hand-scored for sniffing time using Boris.
Marble burying: Male mice were placed individually in a cage with 5 cm of ¼″ corncob bedding and 20 black marbles (14.3 mm in diameter) arranged in a 4×5 matrix and left undisturbed for 30 min. The number of marbles that were at least two-thirds buried at the end of the trial were counted. […]

[6] = 3-chamber social approach, cHets

(1-3)IGF-1: a tripeptide cleaved from the N-terminus of IGF-1; acquired from VWR/Bachem, CAS No. 32302-76-4 (GPE; Insulin-like growth factor 1; UniProt P05019 49-51, looked up, fragment)
puromycin incorporation (protein synthesis) in adult cHets ([1]; adult, chronic treatment): significantly increased; also recorded: restores decreased protein synthesis | puromycin incorporation in adult controls ([1]; adult, relative to vehicle-treated controls): significant decrease in puromycin incorporation | puromycin incorporation (protein synthesis) in neonatal cHets ([1]; daily treatment from P0 to P7): increased puromycin abundance; also recorded: restores decreased protein synthesis | puromycin incorporation in neonatal controls ([1]; daily treatment from P0 to P7): without impacting controls | brain penetrance ([2]; ASD mouse models, dosage 10 μg/g (10 mg kg)): brain penetrance | signaling downstream of IGF-1 ([2]; within 3 hours post-injection): increased signaling downstream of IGF-1 | cortex mass of controls ([3]; control pups, 10 μg/g daily to P7): no effect | p-S6 per layer V neuron in cHets ([3]; neonatal cHets, 10 μg/g daily to P7, Ctip2+ neurons): normal levels; also recorded: rescues the decreased p-S6 | soma size of layer V neurons in cHets ([3]; neonatal cHets, 10 μg/g daily to P7, Nissl stain): comparable to controls; also recorded: rescues the decreased soma size | cortex mass of cHets ([3]; neonatal cHets, 10 μg/g daily to P7, analysed P7, vs vehicle): rescues the decreased cortex mass | lifespan, motor coordination, cardiac function, microcephaly, spine density, and synaptic function [4]: significantly improved | preference index [5, 6]: restored | social interaction time (hand-scored) [5, 6]: increased | social deficit of cHets (time interacting with stimulus mouse, preference index) ([5]; 3-chamber social approach, cHets, daily from P14): restored this social deficit in cHets | sociability of controls ([5]; 3-chamber social approach, controls): did not impact controls | preference for stimulus mouse vs inanimate object within group, 3-chamber social approach ([5]; all genotype X treatment groups): significant preference for interaction with a stimulus mouse; also recorded: significant preference for social interaction | number of marbles buried by cHets ([5]; marble burying, cHets): no effect; also recorded: subtle modification of the phenotype | qualitative interaction with the marbles ([5]; marble burying, cHets): qualitatively interaction with the marbles increased in cHets
